From patent US10611740B2, “Aryl dihydro-2H-benzo[b][1,4]oxazine sulfonamide and related compounds for use as agonists of RORγ and the treatment of disease” (Lycera Corporation, priority 2015, dated 2020)
pEC50: −log10 of the molar value.

Target: T1, Gal4-RORγ-LBD (Homo sapiens, UniProt P51449)
T1 construct: expressed in transfected cells; host or cells: HEK-293 cells (pcDNA3.1neo plasmid)
T1 sequence (P51449 269-508 limits assumed): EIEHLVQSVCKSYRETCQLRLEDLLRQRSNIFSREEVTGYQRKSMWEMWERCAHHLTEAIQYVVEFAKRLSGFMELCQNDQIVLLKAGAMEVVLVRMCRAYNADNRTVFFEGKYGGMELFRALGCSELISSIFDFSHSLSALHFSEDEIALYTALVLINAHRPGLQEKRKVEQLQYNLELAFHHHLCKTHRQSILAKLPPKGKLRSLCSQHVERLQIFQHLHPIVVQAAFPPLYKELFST
Experiment: Gal4-RORγ Luciferase Reporter Assay in HEK-293T Cells
Type: cell-based
Conditions: HEK-293 cells, 2 μM ursolic acid
Experimental: Assay procedures and results are described below.
In the following protocol, HEK-293 cells were transfected with a construct comprising the Gal4 DNA binding domain fused to the ligand binding domain of RORγ (Gal4-RORγ-LBD) in a pcDNA3.1neo plasmid, and also with a reporter construct comprising pGL4.31 Gal4-luciferase (Promega). Control cells were prepared similarly using empty pcDNA3.1neo and pGL4.31 vectors.
Trans-IT reagent (Mirus, 60 μL) at room temperature was added drop wise to OptiMEM (Invitrogen, 1.5 ml). This reagent mixture was mixed by inversion then incubated for 5 to 30 minutes at room temperature. It then was added to a solution of both expression vectors (5 μg each), mixed, and incubated at room temperature for about 20 minutes. HEK-293 cells were harvested from incubation flasks by removing the media, treating with TrypLE Express (Invitrogen), and incubating until the cells detached from the bottom of the flask (approximately 2-5 minutes). 10 Million cells were collected by centrifugation and re-suspended in 10 mL of Dulbecco's Modified Eagle Medium, High Glucose (DMEM, Invitrogen) containing 10% Fetal Bovine Serum and 100 IU each of penicillin and streptomycin. The re-suspended cells and the transfection mixture were added to a T75 flask, mixed and incubated overnight at 37° C. and 5% CO2.
The cells were harvested as described above, counted, and centrifuged to obtain the desired number of cells, then re-suspended in complete growth media at 0.75×10^6 cells/mL. The RORγ antagonist, ursolic acid, was added to the cells at a final concentration of 2 μM. Cells were plated at 20 μL of cell suspension/well (10,000-15,000 cells/well) in white tissue culture treated 384 well plates. Test compounds were dissolved at 10 mM in DMSO then diluted into complete growth medium to 5× the final intended test concentration. These drug stock solutions, 5 μL/well were added to the tissue culture plate. The final DMSO concentration was 0.2%. The plates were briefly centrifuged then incubated overnight at 37° C. and 5% CO2. To conduct the assay, the tissue culture plates were allowed to equilibrate to room temperature and One-Glo luciferase reagent (Promega, 25 μL/well) was added. The plates were briefly centrifuged then incubated at room temperature for 10 minutes. The luciferase intensity was read on an Envision plate reader (Perkin Elmer). […] The luciferase signal in the absence of ursolic acid or test compound is defined at 100. The Max Response is the upper plateau in the signal as determined by line-fit using a 4-parameter logistic model in PRISM (GraphPad).

Compound | pEC50 | Gal4-RORγ Assay Max Response
C[C@]1(C(=O)O)C[C@H](C[C@H]2CN(S(=O)(=O)c3cccc(C(F)(F)F)c3)c3cc(-c4cc(F)cc(F)c4Cl)ccc3O2)C1 [Compound 60F, (1S,3r)-3-(((S)-6-(2-chloro-3,5-difluorophenyl)-4-((3-(trifluoro-methyl)phenyl)sulfonyl)-3,4-dihydro-2H-benzo[b][1,4]oxazin-2-yl)methyl)-1-methylcyclo-butane-1-carboxylic acid] | > 6.30 | ** (The symbol “**” indicates a value in the range of greater than 90 to 150)
CC1(C(=O)O)CC(C[C@H]2CN(S(=O)(=O)c3cccc(C(F)(F)F)c3)c3cc(-c4cc(F)cc(F)c4Cl)ccc3O2)C1 (stereo partly drawn) [Compound 60G, (1R,3s)-3-(((S)-6-(2-chloro-3,5-difluorophenyl)-4-((3-(trifluoro-methyl)phenyl)sulfonyl)-3,4-dihydro-2H-benzo[b][1,4]oxazin-2-yl)methyl)-1-methylcyclo-butane-1-carboxylic acid] | > 6.30 | *** (The symbol “***” indicates a value in the range of greater than 150 to 200)
O=C(O)[C@]1(C[C@H]2CN(S(=O)(=O)c3cccc(C(F)(F)F)c3)c3cc(-c4cc(F)cc(OC(F)F)c4)ccc3O2)C[C@@H](O)[C@@H](O)C1 [Compound 64, (1s,3R,4S)-1-(((S)-6-(3-(difluoromethoxy)-5-fluorophenyl)-4-((3-(trifluoromethyl)phenyl)sulfonyl)-3,4-dihydro-2H-benzo[b][1,4]oxazin-2-yl)methyl)-3,4-dihydroxycyclopentane-1-carboxylic acid] | 5.30 to 6.30 | ** (The symbol “**” indicates a value in the range of greater than 90 to 150)
CC(C)(O[C@H]1Cc2ccc(-c3cc(F)ccc3F)cc2N(S(=O)(=O)c2cccc(C(F)(F)F)c2)C1)C(=O)O [Compound 83C, (S)-2-((7-(2,5-difluorophenyl)-1-((3-(trifluoromethyl)phenyl)sulfonyl)-1,2,3,4-tetrahydroquinolin-3-yl)oxy)-2-methylpropanoic acid] | 5.30 to 6.30 | ** (The symbol “**” indicates a value in the range of greater than 90 to 150)
CC(C)(O[C@H]1Cc2ccc(-c3cc(F)cc(OC(F)F)c3)cc2N(S(=O)(=O)c2cccc(C(F)(F)F)c2)C1)C(=O)O [Compound 83F, (S)-2-((7-(3-(difluoromethoxy)-5-fluorophenyl)-1-((3-(trifluoromethyl)phenyl)sulfonyl)-1,2,3,4-tetrahydroquinolin-3-yl)oxy)-2-methylpropanoic acid] | 5.30 to 6.30 | * (The symbol “*” indicates a value in the range of 25 to 90)
O=C(O)CO[C@@H]1Cc2ccc(-c3cc(F)ccc3F)cc2N(S(=O)(=O)c2cccc(C(F)(F)F)c2)C1 [Compound 82, (R)-2-((7-(2,5-difluorophenyl)-1-((3-(trifluoromethyl)phenyl)sulfonyl)-1,2,3,4-tetrahydroquinolin-3-yl)oxy)acetic acid] | 5.30 to 6.30 | ** (The symbol “**” indicates a value in the range of greater than 90 to 150)
COc1cc(S(=O)(=O)N2C[C@H](CNS(=O)(=O)N3CCCC3)Oc3ccc(-c4cc(F)ccc4F)cc32)ccc1F [Compound 45F, (S)-N-((6-(2,5-difluorophenyl)-4-((4-fluoro-3-methoxyphenyl)sulfonyl)-3,4-dihydro-2H-benzo[b][1,4]oxazin-2-yl)methyl)pyrrolidine-1-sulfonamide] | > 6.30 | 
O=C(O)C1(C[C@H]2CN(S(=O)(=O)c3cncc(C(F)(F)F)c3)c3cc(-c4cc(F)ccc4F)ccc3O2)COC1 [Compound 51K, (S)-3-((6-(2,5-difluorophenyl)-4-((5-(trifluoromethyl)pyridin-3-yl)sulfonyl)-3,4-dihydro-2H-benzo[b][1,4]oxazin-2-yl)methyl)oxetane-3-carboxylic acid] | 5.30 to 6.30 | *** (The symbol “***” indicates a value in the range of greater than 150 to 200)
C[C@]1(C(=O)O)C[C@@H](C[C@H]2CN(S(=O)(=O)c3cccc(C(F)(F)F)c3)c3cc(-c4cc(F)cc(OC(F)F)c4)ccc3O2)C1 [Compound 70, (1R,3s)-3-(((S)-6-(3-(difluoromethoxy)-5-fluorophenyl)-4-((3-(trifluoromethyl)phenyl)sulfonyl)-3,4-dihydro-2H-benzo[b][1,4]oxazin-2-yl)methyl)-1-methylcyclobutane-1-carboxylic acid] | 5.30 to 6.30 | *** (The symbol “***” indicates a value in the range of greater than 150 to 200)

Now from value to molecule, other results behind:

pEC50 | Compound | Gal4-RORγ Assay Max Response
> 6.30 | O=C(O)C1(C[C@H]2CN(S(=O)(=O)c3cccc(C(F)(F)F)c3)c3cc(-c4cc(F)cc(C(F)(F)F)c4)ccc3O2)CCOCC1 [Compound 78O, (S)-4-((6-(3-fluoro-5-(trifluoro-methyl)phenyl)-4-((3-(trifluoro-methyl)phenyl)sulfonyl)-3,4-dihydro-2H-benzo[b][1,4]oxazin-2-yl)methyl)tetrahydro-2H-pyran-4-carboxylic acid] | ** (The symbol “**” indicates a value in the range of greater than 90 to 150)
> 6.30 | COc1cc(Cl)cc(-c2ccc3c(c2)N(S(=O)(=O)c2cccc(C(F)(F)F)c2)C[C@H](CC2(C(=O)O)CCOCC2)O3)c1 [Compound 78L, (S)-4-((6-(3-chloro-5-methoxy-phenyl)-4-((3-(trifluoromethyl)-phenyl)sulfonyl)-3,4-dihydro-2H-benzo[b][1,4]oxazin-2-yl)methyl)tetrahydro-2H-pyran-4-carboxylic acid] | ** (The symbol “**” indicates a value in the range of greater than 90 to 150)
> 6.30 | O=C(O)C1(C[C@H]2CN(S(=O)(=O)c3cccc(C(F)(F)F)c3)c3cc(-c4cc(F)cc(F)c4)ccc3O2)CCOCC1 [Compound 78N, (S)-4-((6-(3,5-difluorophenyl)-4-((3-(trifluoromethyl)phenyl)-sulfonyl)-3,4-dihydro-2H-benzo[b][1,4]oxazin-2-yl)methyl)tetrahydro-2H-pyran-4-carboxylic acid] | ** (The symbol “**” indicates a value in the range of greater than 90 to 150)
> 6.30 | O=C(O)[C@]1(C[C@H]2CN(S(=O)(=O)c3cccc(C(F)(F)F)c3)c3cc(-c4cc(F)cc(OC(F)F)c4)ccc3O2)C[C@H](O)C1 [Compound 67, (1s,3S)-1-(((S)-6-(3-(difluoromethoxy)-5-fluorophenyl)-4-((3-(trifluoromethyl)phenyl)sulfonyl)-3,4-dihydro-2H-benzo[b][1,4]oxazin-2-yl)methyl)-3-hydroxycyclobutane-1-carboxylic acid] | ** (The symbol “**” indicates a value in the range of greater than 90 to 150)
> 6.30 | COc1cc(F)cc(-c2ccc3c(c2)N(S(=O)(=O)c2cccc(C(F)(F)F)c2)C[C@H](CC2(C(=O)O)CCOCC2)O3)c1 [Compound 78R, (S)-4-((6-(3-fluoro-5-methoxy-phenyl)-4-((3-(trifluoromethyl)-phenyl)sulfonyl)-3,4-dihydro-2H-benzo[b][1,4]oxazin-2-yl)methyl)tetrahydro-2H-pyran-4-carboxylic acid] | ** (The symbol “**” indicates a value in the range of greater than 90 to 150)
> 6.30 | COc1cc(F)cc(-c2ccc3c(c2)N(S(=O)(=O)c2cccc(C(F)(F)F)c2)C[C@H](CC2(C(=O)O)CCOCC2)O3)c1F [Compound 78S, (S)-4-((6-(2,5-difluoro-3-methoxyphenyl)-4-((3-(trifluoro-methyl)phenyl)sulfonyl)-3,4-dihydro-2H-benzo[b][1,4]oxazin-2-yl)methyl)tetrahydro-2H-pyran-4-carboxylic acid] | ** (The symbol “**” indicates a value in the range of greater than 90 to 150)
> 6.30 | O=C(O)C1(C[C@H]2CN(S(=O)(=O)c3cccc(C(F)(F)F)c3)c3cc(-c4cc(F)cc(F)c4F)ccc3O2)CCOCC1 [Compound 78T, (S)-4-((4-((3-(trifluoromethyl)-phenyl)sulfonyl)-6-(2,3,5-trifluorophenyl)-3,4-dihydro-2H-benzo[b][1,4]oxazin-2-yl)methyl)tetrahydro-2H-pyran-4-carboxylic acid] | ** (The symbol “**” indicates a value in the range of greater than 90 to 150)
